Numbers after ± are expanded uncertainties.
Assay: xn = mol fraction of the nth substance listed
Settings: 101 kPa, Liquid

CCOCCCN [3-ethoxy-1-propanamine] + O
mass density [kg/m3]
Settings	293.15 K	298.15 K	303.15 K
x1 = 0.000108	–	997.018 ± 0.31	995.609 ± 0.31
x1 = 0.000319	–	996.937 ± 0.31	995.522 ± 0.32
x1 = 0.000625	–	996.811 ± 0.31	995.392 ± 0.32
x1 = 0.000942	–	996.67 ± 0.31	995.256 ± 0.32
x1 = 0.001284	–	996.533 ± 0.31	995.106 ± 0.32
x1 = 0.001947	–	996.269 ± 0.31	994.822 ± 0.32
x1 = 0.002912	–	995.851 ± 0.31	994.409 ± 0.32
x1 = 0.00392	–	995.45 ± 0.31	993.991 ± 0.32
x1 = 0.005098	–	995.024 ± 0.32	993.55 ± 0.32
x1 = 0.00981	–	993.348 ± 0.32	991.796 ± 0.32
x1 = 0.0148	–	991.824 ± 0.32	990.144 ± 0.33
x1 = 0.01956	–	990.53 ± 0.32	988.708 ± 0.33
x1 = 0.02832	–	988.433 ± 0.33	986.387 ± 0.33
x1 = 0.03914	–	986.207 ± 0.33	983.868 ± 0.34
x1 = 0.05082	–	983.995 ± 0.34	981.31 ± 0.34
x1 = 0.06674	–	980.975 ± 0.35	977.903 ± 0.35
x1 = 0.09536	–	975.145 ± 0.36	971.645 ± 0.37
x1 = 0.1209	–	969.369 ± 0.38	965.331 ± 0.39
x1 = 0.1452	–	963.561 ± 0.39	959.341 ± 0.4
x1 = 0.1844	–	954.192 ± 0.42	949.751 ± 0.43
x1 = 0.2121	–	947.02 ± 0.43	942.563 ± 0.45
x1 = 0.2438	944.543 ± 0.44	940.074 ± 0.46	935.55 ± 0.47
x1 = 0.2923	935.456 ± 0.47	930.954 ± 0.48	926.38 ± 0.49
x1 = 0.361	922.252 ± 0.51	917.676 ± 0.53	913.059 ± 0.54
x1 = 0.4369	911.545 ± 0.56	906.929 ± 0.57	902.254 ± 0.58
x1 = 0.4937	902.62 ± 0.59	897.985 ± 0.61	893.262 ± 0.62
x1 = 0.5513	895.311 ± 0.62	890.64 ± 0.64	885.906 ± 0.65
x1 = 0.6214	887.472 ± 0.66	882.775 ± 0.68	877.992 ± 0.69
x1 = 0.6775	881.634 ± 0.69	876.891 ± 0.7	872.12 ± 0.72
x1 = 0.6943	880.062 ± 0.7	875.446 ± 0.71	870.586 ± 0.73
x1 = 0.7458	875.436 ± 0.72	870.539 ± 0.74	865.744 ± 0.75
x1 = 0.7733	873.142 ± 0.73	868.397 ± 0.75	863.589 ± 0.76
x1 = 0.7947	871.067 ± 0.75	866.312 ± 0.76	861.557 ± 0.77
x1 = 0.8276	868.648 ± 0.76	863.952 ± 0.78	859.105 ± 0.79
x1 = 0.8488	–	862.009 ± 0.79	–
x1 = 0.8744	864.922 ± 0.78	860.155 ± 0.8	855.327 ± 0.81
x1 = 0.8993	862.73 ± 0.8	858.054 ± 0.81	853.46 ± 0.82
x1 = 0.9189	861.498 ± 0.81	856.71 ± 0.82	851.896 ± 0.83
x1 = 0.9411	859.742 ± 0.82	855.013 ± 0.83	850.2 ± 0.84
x1 = 0.9486	859.29 ± 0.82	854.542 ± 0.83	849.691 ± 0.85
x1 = 0.9613	858.247 ± 0.83	853.53 ± 0.84	848.739 ± 0.85
x1 = 0.9746	857.315 ± 0.83	852.649 ± 0.85	847.719 ± 0.86
x1 = 0.9871	856.398 ± 0.84	851.83 ± 0.85	846.839 ± 0.87
x1 = 1	855.715 ± 0.84	851.018 ± 0.86	846.075 ± 0.87

— the NIST ThermoML archive (doi:10.1021/je3003578)
